Experiment [1] deals with primary cilium of immune cell (peripheral blood mononuclear cells from an asthmatic patient). The experiment is described as follows: Formation rate of primary cilium in immune cell after culture in steroid-containing medium. The format is cell-based, human. The conditions noted are these: 10 μM steroid, 37° C., 24 hours; nonadherent cells from asthmatic patient PBMC; FIG. 11. As to the method:
Using 10 mL of peripheral blood collected from an asthmatic patient and 15 mL of a human lymphocyte-separation medium (manufactured by GE Healthcare, trade name: Ficoll-Paque PLUS), peripheral blood mononuclear cells were separated from the peripheral blood, according to a density gradient centrifugation method. Some of the separated peripheral blood mononuclear cells were fixed with 4 v/v % PFA-containing PBS solution. The fixed cells were blocked and permeabilized by incubating the cells in a blocking/permeabilizing agent, to give a sample containing uncultured cells.
Some of the separated peripheral blood mononuclear cells were cultured in a steroid-containing medium (RPMI1640 medium containing 10 μM hydrocortisone or 10 μM dexamethasone, 0.1 v/v % DMSO and 10 v/v % FBS) at 37° C. for 24 hours. Then, nonadherent cells suspended in each medium were collected. Immediately after collection, each of the collected cells was fixed with 4 v/v % PFA-containing PBS solution. […]
Next, the total number of immune cells and the number of primary cilia in an immune cell were obtained by using observations of cells contained in each sample. Then, the formation rate of a primary cilium in an immune cell was calculated in accordance with the formula (Ic): [Formation rate of primary cilium in immune cell]=[(Number of primary cilia in immune cell)/(Total number of immune cells)]×100 (Ic). […]

For experiment [2], the system named is adhesive cell in peripheral blood mononuclear cells collected from an asthmatic patient. The experiment is described as follows: Morphology and adhesive cells of peripheral blood mononuclear cells from an asthmatic patient after culture in steroid-containing medium. Type of experiment: cell-based, human. As to conditions: 10 μM steroid, 0.1 v/v % DMSO, 10 v/v % FBS RPMI1640, 37° C., 24 hours; asthmatic patient PBMC; FIG. 10. As to the method: Using 10 mL of peripheral blood collected from an asthmatic patient and 15 mL of a human lymphocyte-separation medium (manufactured by GE Healthcare, trade name: Ficoll-Paque PLUS), peripheral blood mononuclear cells were separated from the peripheral blood, according to a density gradient centrifugation method. Some of the separated peripheral blood mononuclear cells were cultured in a steroid-containing medium (RPMI1640 medium containing 10 μM hydrocortisone or 10 μM dexamethasone, 0.1 v/v % DMSO and 10 v/v % FBS) or a control medium (RPMI1640 medium containing 0.1 v/v % DMSO and 10 v/v % FBS) in a culture vessel at 37° C. for 24 hours. The morphology and state of the obtained cell were observed by an inverted phase contrast microscope (manufactured by Leica Microsystems, trade name: DM IL LED). […]

For the molecule `C[C@]12CCC(=O)C=C1CC[C@@H]1[C@@H]2[C@@H](O)C[C@@]2(C)[C@H]1CC[C@]2(O)C(=O)CO` [hydrocortisone], in experiment [1], the “formation rate of a primary cilium of the immune cell in the nonadherent cell, versus control medium” value was “significantly lower”. For the same molecule, the “presence of adhesive cell after culture (morphology, phase contrast microscope)” value in experiment [2] is “the adhesive cell disappears”.

The values are drawn from patent publication US12306171B2, “Method for detecting indicator of immune-related disease” (MANDOM CORPORATION, priority 2018, dated 2025).
